Laboratory results: patent publication US20230271949A1, “GLP-1R MODULATING COMPOUNDS” (ASCLETIS BIOSCIENCE CO., LTD., priority 2022, published 2023)

target: GLP-1R (Homo sapiens, UniProt P43220); experiment: GLP-1R agonist cAMP stimulation assay (HTRF cAMP); assay type: cell-based; settings: HEK293 cell line expressing GLP-1 target; HTRF cAMP agonist mode, 30 min at RT
How it was run: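 GLP-1R-expressing cells were stimulated with 10-point, 3-fold compound dilutions for 30 min at RT; HTRF cAMP detection reagents were then added for 60 min and the 665/615 ratio read. Ratios were converted to cAMP via a standard curve and % activity scaled between DMSO and top-concentration GLP-1(7-37) reference wells.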

GLP-1R, sequence (P43220 24-463): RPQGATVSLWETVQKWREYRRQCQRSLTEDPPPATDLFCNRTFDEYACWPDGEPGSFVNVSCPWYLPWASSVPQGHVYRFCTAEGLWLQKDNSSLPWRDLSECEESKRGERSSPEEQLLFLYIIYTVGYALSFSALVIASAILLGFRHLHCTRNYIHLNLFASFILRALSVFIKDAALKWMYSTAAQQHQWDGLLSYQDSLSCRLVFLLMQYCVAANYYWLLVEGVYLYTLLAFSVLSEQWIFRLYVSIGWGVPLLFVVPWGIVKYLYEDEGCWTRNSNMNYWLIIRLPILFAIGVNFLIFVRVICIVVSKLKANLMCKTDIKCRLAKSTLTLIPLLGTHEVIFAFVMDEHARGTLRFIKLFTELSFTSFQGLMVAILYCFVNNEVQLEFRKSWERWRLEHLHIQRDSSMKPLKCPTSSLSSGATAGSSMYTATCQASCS

| Compound | EC50 [nM] |
| --- | --- |
| CCc1n[nH]c2ccc(NC(=O)c3ccc4c(c3)nc(CN3CC=C(c5cccc(OCc6ccc(C#N)cc6F)n5)CC3)n4C[C@@H]3CCO3)cc12 [Compound 186] | 2.12 |
| Cc1cc(NC(=O)c2ccc3c(c2)nc(CN2CC=C(c4cccc(OCc5ccc(C#N)cc5F)n4)CC2)n3C[C@@H]2CCO2)cc2cn[nH]c12 [Compound 188] | 1.19 |
| Cc1n[nH]c2ncc(NC(=O)c3ccc4c(c3)nc(CN3CC=C(c5cccc(OCc6ccc(Cl)cc6F)n5)CC3)n4C[C@@H]3CCO3)cc12 [Compound 189] | 3.54 |
| Cc1n[nH]c2ncc(NC(=O)c3ccc4c(c3)nc(CN3CC=C(c5cccc(OCc6ccc(Cl)cc6F)n5)CC3)n4C[C@@H]3CCO3)nc12 [Compound 190] | 9.27 |
| Cc1n[nH]c2ccc(NC(=O)c3ccc4c(c3)nc(CN3CC=C(c5cccc(OCc6ccc(Cl)cc6F)n5)CC3)n4C[C@@H]3CCO3)nc12 [Compound 191] | 3.69 |
| Cc1n[nH]c2cnc(NC(=O)c3ccc4c(c3)nc(CN3CC=C(c5cccc(OCc6ccc(Cl)cc6F)n5)CC3)n4C[C@@H]3CCO3)cc12 [Compound 192] | 9.87 |
| Cc1n[nH]c2cnc(NC(=O)c3ccc4c(c3)nc(CN3CCC(c5cccc(OCc6ccc(Cl)cc6F)n5)CC3)n4C[C@@H]3CCO3)nc12 [Compound 195] | 2.31 |
| Cc1n[nH]c2ccc(C(=O)Nc3ccc4c(c3)nc(CN3CC=C(c5cccc(OCc6ccc(Cl)cn6)n5)CC3)n4C[C@@H]3CCO3)cc12 [Compound 198] | 0.35 |
| COc1n[nH]c2ccc(C(=O)Nc3ccc4c(c3)nc(CN3CC=C(c5cccc(OCc6ccc(Cl)cc6F)n5)CC3)n4C[C@@H]3CCO3)cc12 [Compound 201] | 1.99 |
| O=C(Nc1ccc2c(c1)nc(CN1CC=C(c3cccc(OCc4ccc(Cl)cc4F)n3)CC1)n2C[C@@H]1CCO1)c1ccc2[nH]nc(F)c2c1 [Compound 202] | 2.21 |
| O=C(Nc1ccc2c(c1)nc(CN1CC=C(c3cccc(OCc4ccc(Cl)cc4F)n3)CC1)n2C[C@@H]1CCO1)c1cc(F)c2[nH]ncc2c1 [Compound 205] | 0.98 |
| O=C(Nc1ccc2c(c1)nc(CN1CC=C(c3cccc(OCc4ccc(Cl)cc4F)n3)CC1)n2CC1CCO1)c1ccn2ncc(Cl)c2c1 (centres unmarked) [Compound 206] | 5.91 |
| O=C(Nc1ccc2c(c1)nc(CN1CC=C(c3cccc(OCc4ccc(Cl)cn4)n3)CC1)n2C[C@@H]1CCO1)c1cc(C(F)(F)F)c2c(c1)C1(CC1)C(=O)N2 [Compound 211] | 1.02 |
| O=C(Nc1ccc2c(c1)nc(CN1CC=C(c3cccc(OCc4ccc(Cl)cc4F)n3)CC1)n2C[C@@H]1CCO1)c1cc(C(F)(F)F)c2[nH]ncc2c1 [Compound 212] | 2.96 |
| Cc1n[nH]c2c(Cl)cc(C(=O)Nc3ccc4c(c3)nc(CN3CC=C(c5cccc(OCc6ccc(Cl)cc6F)n5)CC3)n4C[C@@H]3CCO3)cc12 [Compound 214] | 1.21 |
| O=C(Nc1ccc2c(c1)nc(CN1CC=C(c3cccc(OCc4ccc(Cl)cc4F)n3)CC1)n2C[C@@H]1CCO1)c1ccc2[nH]nc(C(F)(F)F)c2c1 [Compound 215] | 2.11 |
| Cc1cc(C(=O)Nc2ccc3c(c2)nc(CN2CC=C(c4cccc(OCc5ccc(Cl)cc5F)n4)CC2)n3C[C@@H]2CCO2)cc2c(C3CC3)n[nH]c12 [Compound 218] | 1.63 |
| O=C(Nc1ccc2c(c1)nc(CN1CC=C(c3cccc(OCc4ccc(Cl)cc4F)n3)CC1)n2C[C@@H]1CCO1)c1ccc2[nH]nc(C(F)F)c2c1 [Compound 219] | 1.21 |
| Cc1n[nH]c2cc(F)c(C(=O)Nc3ccc4c(c3)nc(CN3CC=C(c5cccc(OCc6ccc(Cl)cc6F)n5)CC3)n4C[C@@H]3CCO3)cc12 [Compound 221] | 2.13 |
| Cc1cc(C(=O)Nc2ccc3c(c2)nc(CN2CC=C(c4cccc(OCc5ccc(Cl)cc5F)n4)CC2)n3C[C@@H]2CCO2)c(F)c2c(C)n[nH]c12 [Compound 222] | 3.56 |
| Cc1n[nH]c2ccc(C(=O)Nc3ccc4c(c3)nc(CN3CC=C(c5cccc(OCc6ccc(Cl)cc6F)n5)CC3)n4C[C@@H]3CCO3)c(F)c12 [Compound 224] | 3.29 |
| Cc1cc(C(=O)Nc2ccc3c(c2)nc(CN2CC=C(c4cccc(OCc5ccc(C#N)cc5F)n4)CC2)n3C[C@@H]2CCO2)cc2c(C(F)F)n[nH]c12 [Compound 228] | 1.26 |
| N#Cc1ccc(COc2cccc(C3=CCN(Cc4nc5cc(NC(=O)c6ccc7[nH]nc(C(F)(F)F)c7c6)ccc5n4C[C@@H]4CCO4)CC3)n2)c(F)c1 [Compound 232] | 1.26 |
| Cc1n[nH]c2ncc(C(=O)Nc3ccc4c(c3)nc(CN3CC=C(c5cccc(OCc6ccc(C#N)cc6F)n5)CC3)n4C[C@@H]3CCO3)cc12 [Compound 234] | 3.87 |
| Cc1cc(C(=O)Nc2ccc3c(c2)nc(CN2CC=C(c4cccc(OCc5ccc(C#N)cc5F)n4)CC2)n3C[C@@H]2CCO2)cc2cn[nH]c12 [Compound 236] | 1.04 |
| Cc1n[nH]c2cnc(C(=O)Nc3ccc4c(c3)nc(CN3CC=C(c5cccc(OCc6ccc(Cl)cc6F)n5)CC3)n4C[C@@H]3CCO3)cc12 [Compound 237] | 8.71 |
| Cc1n[nH]c2ncc(C(=O)Nc3ccc4c(c3)nc(CN3CC=C(c5cccc(OCc6ccc(Cl)cc6F)n5)CC3)n4C[C@@H]3CCO3)nc12 [Compound 238] | 11.9 |
| Cc1n[nH]c2ccc(C(=O)Nc3ccc4c(c3)nc(CN3CC=C(c5cccc(OCc6ccc(Cl)cc6F)n5)CC3)n4C[C@@H]3CCO3)nc12 [Compound 239] | 3.19 |
| Cc1n[nH]c2cnc(C(=O)Nc3ccc4c(c3)nc(CN3CC=C(c5cccc(OCc6ccc(Cl)cc6F)n5)CC3)n4C[C@@H]3CCO3)nc12 [Compound 240] | 20.7 |

Second part, the compound after the results:

| EC50 [nM] | Compound |
| --- | --- |
| 0.2 | Cc1n[nH]c2ccc(NC(=O)c3ccc4c(c3)nc(CN3CC=C(c5cccc(OCc6ccc(C#N)cc6F)n5)CC3)n4C[C@@H]3CCO3)cc12 [Compound 187] |
| 0.21 | O=C(Nc1ccc2[nH]nnc2c1)c1ccc2c(c1)nc(CN1CCC(c3cccc(OCc4ccc(Cl)cc4F)n3)CC1)n2C[C@@H]1CCO1 [Compound 193] |
| 0.33 | Cc1cc(NC(=O)c2ccc3c(c2)nc(CN2CCC(c4cccc(OCc5ccc(Cl)cc5F)n4)CC2)n3C[C@@H]2CCO2)cc2nn[nH]c12 [Compound 194] |
| 0.47 | Cc1cc(C(=O)Nc2ccc3c(c2)nc(CN2CC=C(c4cccc(OCc5ccc(Cl)cc5F)n4)CC2)n3C[C@@H]2CCO2)cc2cn[nH]c12 [Compound 199] |
| 0.82 | CC(C)c1n[nH]c2ccc(C(=O)Nc3ccc4c(c3)nc(CN3CC=C(c5cccc(OCc6ccc(Cl)cc6F)n5)CC3)n4C[C@@H]3CCO3)cc12 [Compound 200] |
| 0.63 | O=C(Nc1ccc2c(c1)nc(CN1CC=C(c3cccc(OCc4ccc(Cl)cc4F)n3)CC1)n2C[C@@H]1CCO1)c1ccc2[nH]ncc2c1 [Compound 204] |
| 0.25 | O=C(Nc1ccc2c(c1)nc(CN1CC=C(c3cccc(OCc4ccc(Cl)cc4F)n3)CC1)n2C[C@@H]1CCO1)c1cc(F)c2c(c1)C1(CC1)C(=O)N2 [Compound 208] |
| 0.32 | Cc1cc(C(=O)Nc2ccc3c(c2)nc(CN2CC=C(c4cccc(OCc5ccc(Cl)cc5F)n4)CC2)n3C[C@@H]2CCO2)cc2c1NC(=O)C21CC1 [Compound 209] |
| 0.39 | Cc1n[nH]c2c(C(F)(F)F)cc(C(=O)Nc3ccc4c(c3)nc(CN3CC=C(c5cccc(OCc6ccc(Cl)cc6F)n5)CC3)n4C[C@@H]3CCO3)cc12 [Compound 210] |
| 0.78 | Cc1n[nH]c2c(C(F)(F)F)cc(C(=O)Nc3ccc4c(c3)nc(CN3CC=C(c5cccc(OCc6ccc(Cl)cn6)n5)CC3)n4C[C@@H]3CCO3)cc12 [Compound 213] |
| 0.82 | O=C(Nc1ccc2c(c1)nc(CN1CC=C(c3cccc(OCc4ccc(Cl)cc4F)n3)CC1)n2C[C@@H]1CCO1)c1ccc2[nH]nc(C3CC3)c2c1 [Compound 216] |
| 0.79 | Cc1cc(C(=O)Nc2ccc3c(c2)nc(CN2CC=C(c4cccc(OCc5ccc(Cl)cc5F)n4)CC2)n3C[C@@H]2CCO2)cc2c(C(F)F)n[nH]c12 [Compound 217] |
| 0.44 | Cc1n[nH]c2c(C(F)F)cc(C(=O)Nc3ccc4c(c3)nc(CN3CC=C(c5cccc(OCc6ccc(Cl)cc6F)n5)CC3)n4C[C@@H]3CCO3)cc12 [Compound 220] |
| 0.95 | CC(C)c1n[nH]c2ccc(C(=O)Nc3ccc4c(c3)nc(CN3CC=C(c5cccc(OCc6ccc(Cl)cc6F)n5)CC3)n4C[C@@H]3CCO3)cc12 [Compound 223] |
| 0.18 | Cc1n[nH]c2c(F)cc(C(=O)Nc3ccc4c(c3)nc(CN3CC=C(c5cccc(OCc6ccc(C#N)cc6F)n5)CC3)n4C[C@@H]3CCO3)cc12 [Compound 225] |
| 0.12 | N#Cc1ccc(COc2cccc(C3=CCN(Cc4nc5cc(NC(=O)c6cc(F)c7c(c6)C6(CC6)C(=O)N7)ccc5n4C[C@@H]4CCO4)CC3)n2)c(F)c1 [Compound 226] |
| 0.22 | N#Cc1ccc(COc2cccc(C3=CCN(Cc4nc5cc(NC(=O)c6cc(F)c7c(c6)C6(CC6)C(=O)N7)ccc5n4C[C@@H]4CCO4)CC3)n2)c(F)c1 [Compound 227] |
| 0.09 | N#Cc1ccc(COc2cccc(C3=CCN(Cc4nc5cc(NC(=O)c6ccc7c(c6)C6(CC6)C(=O)N7)ccc5n4C[C@@H]4CCO4)CC3)n2)c(F)c1 [Compound 230] |
| 0.87 | CCc1n[nH]c2ccc(C(=O)Nc3ccc4c(c3)nc(CN3CC=C(c5cccc(OCc6ccc(C#N)cc6F)n5)CC3)n4C[C@@H]3CCO3)cc12 [Compound 231] |
| 0.92 | Cc1cc(C(=O)Nc2ccc3c(c2)nc(CN2CC=C(c4cccc(OCc5ccc(C#N)cc5F)n4)CC2)n3C[C@@H]2CCO2)cc2c(C3CC3)n[nH]c12 [Compound 233] |
| 0.42 | Cc1n[nH]c2ccc(C(=O)Nc3ccc4c(c3)nc(CN3CC=C(c5cccc(OCc6ccc(C#N)cc6F)n5)CC3)n4C[C@@H]3CCO3)cc12 [Compound 235] |
| 0.31 | O=C(Nc1ccc2c(c1)nc(CN1CC=C(c3cccc(OCc4ccc(Cl)cc4F)n3)CC1)n2C[C@@H]1CCO1)c1ccc2[nH]nnc2c1 [Compound 241] |
| 0.17 | Cc1cc(C(=O)Nc2ccc3c(c2)nc(CN2CC=C(c4cccc(OCc5ccc(Cl)cc5F)n4)CC2)n3C[C@@H]2CCO2)cc2nn[nH]c12 [Compound 242] |
| 0.48 | C=C(C)c1n[nH]c2ccc(C(=O)Nc3ccc4c(c3)nc(C3CC35CCN(c3cccc(OCc6ccc(Cl)cc6F)n3)CC5)n4CC3CCO3)cc12 (centres unmarked) [Compound 243] |
